Non-standard residues stand in square brackets, D forms with d. Residues, ends and D or L forms follow the SMILES beside them. No end group written: not given here. Aib = CC(C)(N)C(=O)O
Assays:
[1] = molecular target: T1, LCAT (purified from human plasma) (Homo sapiens, UniProt P04180); assay: LCAT activation assay; assay type: biochemical; conditions: LCAT activation as compared with native human ApoA-I (= 100%), equivalent masses
T1 construct: from tissue; host or cells: human plasma
T1 sequence (P04180 25-440): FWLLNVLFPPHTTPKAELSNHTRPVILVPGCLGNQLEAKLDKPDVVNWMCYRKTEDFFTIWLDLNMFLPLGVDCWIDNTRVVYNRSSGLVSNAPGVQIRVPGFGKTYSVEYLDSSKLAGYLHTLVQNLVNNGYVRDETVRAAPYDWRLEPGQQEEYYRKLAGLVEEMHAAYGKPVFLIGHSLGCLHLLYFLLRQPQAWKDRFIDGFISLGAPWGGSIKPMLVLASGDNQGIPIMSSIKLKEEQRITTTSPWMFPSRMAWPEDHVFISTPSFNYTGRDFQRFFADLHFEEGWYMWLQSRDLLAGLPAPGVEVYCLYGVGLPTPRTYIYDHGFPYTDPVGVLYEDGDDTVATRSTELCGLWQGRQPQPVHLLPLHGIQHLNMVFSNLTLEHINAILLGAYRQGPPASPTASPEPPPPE
Outline: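 Substrate SUVs of EPC or POPC with 14C-cholesterol (20:1 molar ratio), in 10 mM Tris, 0.14 M NaCl, 1 mM EDTA, pH 7.4, were preincubated with peptide or equal mass of plasma ApoA-I. Reaction started with human plasma LCAT; activation was measured as cholesterol-to-ester conversion relative to ApoA-I (100%).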

[2] = Circular dichroism helicity determination; assay type: physicochemical; conditions: percent helicity; for He (%) free: unbound peptide 5 μM in 5 mM phosphate buffer, pH 7.4, 37° C.; for He (%) SUVs: peptide-SUV complexes (20:1 EPC:Chol., Ri=30 and Ri=50); for He (%) SUVs / He (%) TFE: 37° C.; for He (%) mics: peptide-micelle complexes, Ri=100, 37° C.; for He (%) TFE: 5 μM peptide, 90% vol TFE
Experimental: Far UV circular dichroism spectra were recorded between 190 and 260 nm (in 0.5 nm or 0.2 nm increments) with a AVIV62DS spectrometer (AVIV Associates, Lakewood, N.J., USA) equipped with a thermoelectric cell holder and sample changer. The instrument was calibrated with (+)-10-[…]. Between one and three scans were collected for each sample, using 10 cm, 5 cm, 1 cm and 0.1 cm path length quartz Suprasil cells, respectively, for peptide concentrations of 10^−7 M to 10^−4 M. The bandwidth was fixed at 1.5 nm and the scan speed to 1s per wavelength step. The reported data are the mean of at least 2 or 3 independent measurements.
After background substraction, spectra were converted to molar ellipticity (θ) per residue in deg. […] dmol^−1. The peptide concentration was determined by amino acid analysis and also by absorption spectrometry on a Perkin Elmer Lambda 17 UV/Visible spectrophotometer when the peptide contained a chromophore (tryptophane, dansyl, naphtylalanine).
CD spectra were obtained with free, unbound peptide (5 μM in 5 mM phosphate buffer, pH 7.4); with peptide-SUV complexes (20:1 EPC:Chol., Ri=30 and Ri=50); with peptide-micelle complexes (1-myristoyl-2-hydroxy-sn-glycero-3-phosphatidyl choline, Ri=100); and with free, unbound peptide in the presence of 2,2,2-trifluoroethanol (TFE) (5 μM peptide, 90% vol TFE).
The SUVs were obtained by dispersing the lipids (10 mM, 20:1 EPC:Chol., Avanti Polar Lipids, AL) in phosphate buffer (5 mM, pH 7.4) with bubbling N2 for 5 min., followed by sonication (1.5 hr.) in a bath sonicator. The homogeneity of the preparation was checked by FPLC.
The micelles were obtained by dispersing the lipid (6 mM 1-myristoyl-2-hydroxy-sn-glycero-3-phosphatidyl choline, Avanti Polar Lipids, AL) in phosphate buffer (5 mM, pH 7.4) with bubbling N2 for 5 min., followed by vortexing.
To obtain the peptide-SUV complexes, SUVs were added to the peptide (5 μM in 5 mM phosphate buffer, pH 7.4) at a phospholipid-peptide molar ratio (Ri) of 30 or 50.
To obtain the peptide-micelle complexes, micelles were added to the peptide (5 μM in 5 mM phosphate buffer, pH 7.4) at a Ri of 100.
All spectra were recorded at 37° C.
The degree of helicity of the peptides in the various conditions was determined from the mean residue ellipticity at 222 nm (Chen et al., 1974, Biochemistry 13:3350-3359) or by comparing the CD spectra obtained to reference spectra available on databases (16 helical reference spectra from Provencher & Glockner, 1981, Biochemistry 20:33-37; denatured protein reference spectra from Venyaminov et al., 1993, Anal. Biochem. 214:17-24) using the CONTIN curve-fitting algorithm version 2DP, CD-1 pack (August 1982) (Provencher, 1982, Comput. Phys. Commun. 27:213-227, 229-242). Acceptable fit was determined using the statistical analysis methodology provided by the CONTIN algorithm. The error of all methods was ±5% helicity.

Molecule: PVLDWFRELLNELLEALKQKLK [compound 35]
- ACTIVITY (%) LCAT [1]: 31%
- He (%) free [2]: 49%
- He (%) SUVs [2]: 61%
- He (%) mics [2]: 59%

Molecule: PVLELFENLLERLLDWLQKKLK [compound 160]
- ACTIVITY (%) LCAT [1]: 28%
- He (%) TFE [2]: 61%
- He (%) free [2]: 65%
- He (%) SUVs [2]: 75%
- He (%) mics [2]: 73%

Molecule: CC(C)C[C@H](NC(=O)[C@H](C)NC(=O)[C@H](CCC(=O)O)NC(=O)[C@H](CC(C)C)NC(=O)C(C)(C)NC(=O)[C@H](CCC(=O)O)NC(=O)[C@H](CC(N)=O)NC(=O)[C@H](CC(C)C)NC(=O)[C@H](CC(C)C)NC(=O)[C@H](CCC(=O)O)NC(=O)[C@H](CCCNC(=N)N)NC(=O)[C@H](Cc1ccccc1)NC(=O)[C@H](CC(C)C)NC(=O)[C@H](CC(=O)O)NC(=O)[C@H](CC(C)C)NC(=O)[C@@H](NC(=O)[C@@H]1CCCN1)C(C)C)C(=O)N[C@@H](CCCCN)C(=O)N[C@@H](CCC(N)=O)C(=O)N[C@@H](CCCCN)C(=O)N[C@@H](CC(C)C)C(=O)N[C@@H](CCCCN)C(=O)O [compound 6, PVLDLFRELLNEXLEALKQKLK] (H-PVLDLFRELLNE[Aib]LEALKQKLK-OH)
- ACTIVITY (%) LCAT [1]: 80%
- He (%) TFE [2]: 99%
- He (%) free [2]: 57%
- He (%) SUVs [2]: 70%
- He (%) mics [2]: 93%

Molecule: PVLELFENLLERLWDALQKKLK [compound 163]
- ACTIVITY (%) LCAT [1]: 26%
- He (%) TFE [2]: 55%
- He (%) free [2]: 27%
- He (%) mics [2]: 53%

Molecule: PVLDLFKELLNELLEALKQKLK [peptide 7]
- ACTIVITY (%) LCAT [1]: 83%
- He (%) TFE [2]: 73%
- He (%) free [2]: 77%
- He (%) SUVs [2]: 85%
- He (%) mics [2]: 89%

Molecule: PVLDLFRELLEELLKALKKKLK [compound 39]
- ACTIVITY (%) LCAT [1]: 25%
- He (%) TFE [2]: 72%
- He (%) free [2]: 66%
- He (%) SUVs [2]: 68%
- He (%) mics [2]: 69%

Molecule: Ac-PVLELFRELLEELKQKLK-NH2 [compound 194]
- ACTIVITY (%) LCAT [1]: 88%
- He (%) TFE [2]: 93%
- He (%) free [2]: 38%
- He (%) mics [2]: 93%

Molecule: CC(C)C[C@H](NC(=O)[C@H](CCCCN)NC(=O)[C@H](CCC(N)=O)NC(=O)[C@H](CCCCN)NC(=O)[C@H](CC(C)C)NC(=O)[C@@H](N)CCCCN)C(=O)N[C@@H](C)C(=O)N[C@@H](CCC(=O)O)C(=O)N[C@@H](CC(C)C)C(=O)N[C@@H](CC(C)C)C(=O)N[C@@H](CCC(=O)O)C(=O)N[C@@H](CC(N)=O)C(=O)N[C@@H](CC(C)C)C(=O)N[C@@H](CC(C)C)C(=O)N[C@@H](CCC(=O)O)C(=O)N[C@@H](CCCNC(=N)N)C(=O)N[C@@H](Cc1ccccc1)C(=O)N[C@@H](CC(C)C)C(=O)N[C@@H](CC(=O)O)C(=O)N[C@@H](CC(C)C)C(=O)N[C@H](C(=O)N1CCC[C@H]1C(=O)O)C(C)C [compound 99]
- ACTIVITY (%) LCAT [1]: 2%
- He (%) TFE [2]: 80%
- He (%) free [2]: 72%
- He (%) SUVs [2]: 80%
- He (%) mics [2]: 88%

Molecule: PLLELFENLLEKLLDALQKKLK [compound 183]
- ACTIVITY (%) LCAT [1]: 6%

Molecule: Ac-PALELFKDLLEELRQRLK-NH2 [compound 208]
- ACTIVITY (%) LCAT [1]: 48%

Molecule: PVLDLFRELLNEELEALKQKLK [compound 98]
- ACTIVITY (%) LCAT [1]: 2%

Molecule: PVLDLFREKLNELLEALKQKLK [compound 33]
- ACTIVITY (%) LCAT [1]: 33%

Molecule: PVLDEFREKLNEELEALWQKLK [compound 121]
- ACTIVITY (%) LCAT [1]: 0%

Molecule: Ac-EWLEAFYKKVLEKLKELF-NH2 [compound 239, reference compound]
- ACTIVITY (%) LCAT [1]: 11%
- ACTIVITY (%) LCAT ([1]; listed as N-acetylated, C-amidated peptide 18AM4): < 11%

Molecule: PVLDLFRELLNELLEAGKQKLK [compound 12]
- ACTIVITY (%) LCAT [1]: 70%

Molecule: CC(C)C[C@H](NC(=O)[C@H](C)NC(=O)[C@H](CCC(=O)O)NC(=O)[C@H](CC(C)C)NC(=O)C(C)(C)NC(=O)[C@H](CCC(=O)O)NC(=O)[C@H](CCCCN)NC(=O)[C@H](CC(C)C)NC(=O)[C@H](CC(C)C)NC(=O)[C@H](CCC(=O)O)NC(=O)[C@H](CCCNC(=N)N)NC(=O)[C@H](Cc1ccccc1)NC(=O)[C@H](CCC(=O)O)NC(=O)[C@H](CC(=O)O)NC(=O)[C@H](CC(C)C)NC(=O)[C@@H](NC(=O)[C@@H]1CCCN1)C(C)C)C(=O)N[C@@H](CCCCN)C(=O)N[C@@H](CCC(N)=O)C(=O)N[C@@H](CCCCN)C(=O)N[C@@H](CC(C)C)C(=O)N[C@@H](CCCCN)C(=O)O [compound 68, PVLDEFRELLKEXLEALKQKLK] (H-PVLDEFRELLKE[Aib]LEALKQKLK-OH)
- ACTIVITY (%) LCAT [1]: 14%

Molecule: CC(C)C[C@H](NC(=O)[C@H](C)NC(=O)[C@H](CCC(=O)O)NC(=O)[C@H](Cc1c[nH]c2ccccc12)NC(=O)C(C)(C)NC(=O)[C@H](CCC(=O)O)NC(=O)[C@H](Cc1c[nH]c2ccccc12)NC(=O)[C@H](CC(C)C)NC(=O)[C@H](CCCCN)NC(=O)[C@H](CCC(=O)O)NC(=O)[C@H](CCCNC(=N)N)NC(=O)[C@H](Cc1ccccc1)NC(=O)[C@H](CCC(=O)O)NC(=O)[C@H](CC(=O)O)NC(=O)[C@H](CC(C)C)NC(=O)[C@@H](NC(=O)[C@@H]1CCCN1)C(C)C)C(=O)N[C@@H](CCCCN)C(=O)N[C@@H](CCC(N)=O)C(=O)N[C@@H](CCCCN)C(=O)N[C@@H](CC(C)C)C(=O)N[C@@H](CCCCN)C(=O)O [compound 111, PVLDEFREKLWEXWEALKQKLK] (H-PVLDEFREKLWE[Aib]WEALKQKLK-OH)
- ACTIVITY (%) LCAT [1]: 0%

Molecule: PVLEFFENLLERLLDALQKKLK [compound 157]
- ACTIVITY (%) LCAT [1]: 30%

Molecule: PVLELFENLLERWLDALQKKLK [compound 181]
- ACTIVITY (%) LCAT [1]: 8%

Molecule: AVLDLFRELLNELLEALKQKLK [compound 29]
- ACTIVITY (%) LCAT [1]: 39%

Molecule: PVLDAFRELGEALLQLKK [compound 226]
- ACTIVITY (%) LCAT [1]: 1%

Molecule: PLLELFENLLERLLDALQKKLK [peptide 150]
- ACTIVITY (%) LCAT [1]: 57%

Molecule: PVLDLFRELLNELLE [compound 97]
- ACTIVITY (%) LCAT [1]: 4%

Molecule: PVFELFENLLERLLDALQKKLK [peptide 152]
- ACTIVITY (%) LCAT [1]: 50%

Molecule: PVLELFENLLERLLDLLQKKLK [compound 165]
- ACTIVITY (%) LCAT [1]: 23%

Molecule: CC(C)C[C@H](NC(=O)[C@H](C)NC(=O)[C@H](CCC(=O)O)NC(=O)[C@H](CC(C)C)NC(=O)C(C)(C)NC(=O)[C@H](CCCCN)NC(=O)[C@H](CC(N)=O)NC(=O)[C@H](CC(C)C)NC(=O)[C@H](CCCCN)NC(=O)[C@H](CCC(=O)O)NC(=O)[C@H](CCCNC(=N)N)NC(=O)[C@H](Cc1ccccc1)NC(=O)[C@H](CCC(=O)O)NC(=O)[C@H](CC(=O)O)NC(=O)[C@H](CC(C)C)NC(=O)[C@@H](NC(=O)[C@@H]1CCCN1)C(C)C)C(=O)N[C@@H](CCCCN)C(=O)N[C@@H](CCC(N)=O)C(=O)N[C@@H](CCCCN)C(=O)N[C@@H](CC(C)C)C(=O)N[C@@H](CCCCN)C(=O)O [compound 77, PVLDEFREKLNKXLEALKQKLK] (H-PVLDEFREKLNK[Aib]LEALKQKLK-OH)
- ACTIVITY (%) LCAT [1]: 9%

Molecule: PVLELFENLLERLLEALQKKLK [compound 161]
- ACTIVITY (%) LCAT [1]: 27%

Molecule: PVLDLFREKLNEELEALKQKLK [compound 106]
- ACTIVITY (%) LCAT [1]: 0%

— patent US7273848B2, “Apolipoprotein A-I agonists and their use to treat dyslipidemic disorders” (priority 1997, dated 2007)
